Consider 37 molecules from ChEMBL document CHEMBL4041509, “Structure-activity relationship study of novel 2-aminobenzofuran derivatives as P-glycoprotein inhibitors” (Eur J Med Chem, 2017).

In data set [1] the target is T1, ATP-dependent translocase ABCB1 (Homo sapiens, UniProt P08183). The data set is described as follows: Inhibition of ABCB1 (unknown origin) expressed in Flp-In-293 cells assessed as increase in calcein-AM uptake at 2.5 uM preincubated for 30 mins followed by calcein-AM addition measured after 30 mins by fluorescence spectrometric method relative to control. Type of data set: cell-based. The following applies: 0.5 h.

The target in data set [2] is T1, ATP-dependent translocase ABCB1. The data set is described as follows: Inhibition of ABCB1 (unknown origin) expressed in Flp-In-293 cells assessed as increase in calcein-AM uptake at 5 uM preincubated for 30 mins followed by calcein-AM addition measured after 30 mins by fluorescence spectrometric method relative to control. The following applies: 0.5 h. Type of data set: cell-based.

For data set [3] the target is unchanged. Nature of the data set: Inhibition of ABCB1 (unknown origin) expressed in Flp-In-293 cells assessed as increase in calcein-AM uptake at 10 uM preincubated for 30 mins followed by calcein-AM addition measured after 30 mins by fluorescence spectrometric method relative to control. Type of data set: cell-based. The following applies: 0.5 h.
The next data set concerns HeLa S3. Nature of the data set: Cytotoxicity against human HeLaS3 assessed as reduction in cell viability by SRB assay. In kind it is cell-based.
Data set [4] relates to HEK293. Nature of the data set: Potentiation of vincristine-induced cytotoxicity against human Flp-In-293 cells at 1 uM by SRB assay relative to control. Type of data set: functional. A general note: The SRB assay estimates cell density from bound dye.
In data set [5] the test system is HEK293. Nature of the data set: Potentiation of vincristine-induced cytotoxicity against human Flp-In-293 cells at 2.5 uM by SRB assay relative to control. In kind it is functional.
Data set [6] deals with HEK293. The data set is described as follows: Potentiation of paclitaxel-induced cytotoxicity against human Flp-In-293 cells at 1 uM by SRB assay relative to control. In kind it is functional.
The test system of data set [7] is HEK293. The data set is described as follows: Potentiation of paclitaxel-induced cytotoxicity against human Flp-In-293 cells at 2.5 uM by SRB assay relative to control. Type of data set: functional.
The subject of data set [8] is HEK293. The data set is described as follows: Potentiation of doxorubicin-induced cytotoxicity against human Flp-In-293 cells at 1 uM by SRB assay relative to control. In kind it is functional.
In data set [9] the test system is HEK293. The data set is described as follows: Potentiation of doxorubicin-induced cytotoxicity against human Flp-In-293 cells at 2.5 uM by SRB assay relative to control. In kind it is functional.
The species entered for data set [10] is Homo sapiens. Nature of the data set: Inhibition of P-gp in human HeLaS3 cells assessed as potentiation of vincristine-induced cytotoxicity at 1 uM by SRB assay relative to control. In kind it is cell-based.
The species entered for data set [11] is Homo sapiens. The data set is described as follows: Inhibition of P-gp in human HeLaS3 cells assessed as potentiation of vincristine-induced cytotoxicity at 2.5 uM by SRB assay relative to control. In kind it is cell-based.
The species named for data set [12] is Homo sapiens. The data set is described as follows: Inhibition of P-gp in human HeLaS3 cells assessed as potentiation of paclitaxel-induced cytotoxicity at 1 uM by SRB assay relative to control. In kind it is cell-based.
The species entered for data set [13] is Homo sapiens. The data set is described as follows: Inhibition of P-gp in human HeLaS3 cells assessed as potentiation of doxorubicin-induced cytotoxicity at 1 uM by SRB assay relative to control. Type of data set: cell-based.
For data set [14], the species on record is Homo sapiens. Nature of the data set: Inhibition of P-gp in human HeLaS3 cells assessed as potentiation of doxorubicin-induced cytotoxicity at 2.5 uM by SRB assay relative to control. Type of data set: cell-based.
For data set [15], the species on record is Homo sapiens. Nature of the data set: Inhibition of P-gp in human KBVIN cells assessed as potentiation of vincristine-induced cytotoxicity at 1 uM by SRB assay relative to control. Type of data set: cell-based.
The species entered for data set [16] is Homo sapiens. Nature of the data set: Inhibition of P-gp in human KBVIN cells assessed as potentiation of vincristine-induced cytotoxicity at 2.5 uM by SRB assay relative to control. In kind it is cell-based.
The species named for data set [17] is Homo sapiens. Nature of the data set: Inhibition of P-gp in human KBVIN cells assessed as potentiation of paclitaxel-induced cytotoxicity at 1 uM by SRB assay relative to control. Type of data set: cell-based.
For data set [18], the species on record is Homo sapiens. Nature of the data set: Inhibition of P-gp in human KBVIN cells assessed as potentiation of paclitaxel-induced cytotoxicity at 2.5 uM by SRB assay relative to control. In kind it is cell-based.
The species named for data set [19] is Homo sapiens. The data set is described as follows: Inhibition of P-gp in human KBVIN cells assessed as potentiation of doxorubicin-induced cytotoxicity at 1 uM by SRB assay relative to control. In kind it is cell-based.
For data set [20], the species on record is Homo sapiens. Nature of the data set: Inhibition of P-gp in human KBVIN cells assessed as potentiation of doxorubicin-induced cytotoxicity at 2.5 uM by SRB assay relative to control. In kind it is cell-based.

Bounds are passed on as bounds.

T1 sequence (P08183 whole entry): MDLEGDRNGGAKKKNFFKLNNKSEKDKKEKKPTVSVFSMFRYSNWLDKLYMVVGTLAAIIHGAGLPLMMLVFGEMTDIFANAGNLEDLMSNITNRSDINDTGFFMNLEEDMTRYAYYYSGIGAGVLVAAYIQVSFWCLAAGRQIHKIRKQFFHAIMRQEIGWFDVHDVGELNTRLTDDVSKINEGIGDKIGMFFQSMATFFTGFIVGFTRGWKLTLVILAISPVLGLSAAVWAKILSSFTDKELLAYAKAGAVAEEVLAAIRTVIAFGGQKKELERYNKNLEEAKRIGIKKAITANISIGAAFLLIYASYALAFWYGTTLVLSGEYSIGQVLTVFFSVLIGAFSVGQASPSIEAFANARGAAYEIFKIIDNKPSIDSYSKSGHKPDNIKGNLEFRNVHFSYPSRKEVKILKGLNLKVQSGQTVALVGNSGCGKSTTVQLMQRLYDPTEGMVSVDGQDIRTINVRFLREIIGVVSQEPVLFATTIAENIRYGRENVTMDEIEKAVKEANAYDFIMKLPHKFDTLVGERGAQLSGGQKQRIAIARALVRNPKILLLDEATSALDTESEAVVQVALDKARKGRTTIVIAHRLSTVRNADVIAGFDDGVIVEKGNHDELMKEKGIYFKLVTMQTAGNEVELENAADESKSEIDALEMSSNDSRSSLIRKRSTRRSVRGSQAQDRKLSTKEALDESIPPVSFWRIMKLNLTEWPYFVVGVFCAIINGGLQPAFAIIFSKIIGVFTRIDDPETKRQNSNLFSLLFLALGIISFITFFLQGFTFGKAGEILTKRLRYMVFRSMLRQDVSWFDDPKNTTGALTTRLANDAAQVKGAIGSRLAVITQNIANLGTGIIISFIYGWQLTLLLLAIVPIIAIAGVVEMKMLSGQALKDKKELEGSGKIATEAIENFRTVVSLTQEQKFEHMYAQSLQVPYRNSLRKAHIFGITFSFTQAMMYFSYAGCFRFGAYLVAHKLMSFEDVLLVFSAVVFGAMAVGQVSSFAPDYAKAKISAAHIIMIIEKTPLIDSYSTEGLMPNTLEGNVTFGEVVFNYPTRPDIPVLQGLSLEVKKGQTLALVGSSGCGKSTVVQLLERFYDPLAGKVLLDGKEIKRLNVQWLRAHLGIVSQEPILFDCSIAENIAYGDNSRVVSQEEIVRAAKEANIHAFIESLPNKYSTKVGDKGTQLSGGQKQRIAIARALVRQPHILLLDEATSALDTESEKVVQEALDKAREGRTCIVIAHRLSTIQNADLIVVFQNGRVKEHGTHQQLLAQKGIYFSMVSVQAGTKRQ

As to `COc1ccc(-c2cc(OC(C)=O)c3c(-c4cccs4)c(N)oc3c2)cc1OC`, the “fold change (FC)” value in data set [1] was 3.75; in data set [2] it was 4.35.

Consider `COc1ccc(-c2cc(OCc3ncc(C)c(OC)c3C)c3c(-c4cccs4)c(N)oc3c2)cc1`, for which the “fold change (FC)” value in [2] is recorded as 7.97; in [3], 8.38.

Take `COc1ccc(-c2cc(OC(C)=O)c3c(-c4cccs4)c(N)oc3c2)cc1`: the “fold change (FC)” value in [1] is reported as 1.9; in [2], 2.2.

`COc1ccc(-c2cc(OC(C)=O)c3c(-c4ccc(Cl)c(Cl)c4)c(N)oc3c2)cc1`: the results for the “fold change (FC)” value in data set [1] and in data set [2] were 1.82 and 1.83, respectively.

As for `COc1ccc(-c2cc(OCc3ccccc3)c3c(-c4cccs4)c(N)oc3c2)cc1`, the “fold change (FC)” value in [2] was 0.81; in data set [3], 0.85.

With `CC(=O)Oc1cc(-c2ccc3c(c2)OCO3)cc2oc(N)c(-c3cccs3)c12`, the results for the “fold change (FC)” value in [1] and in data set [2] were 0.96 and 0.86, respectively.

Consider `COc1ccc(-c2cc(OCCN3CCCCC3)c3c(-c4cccs4)c(N)oc3c2)cc1OC`, for which the “fold change (FC)” value in [2] is recorded as 6.06.

With `COc1ccc(-c2cc(OCc3ccncc3)c3c(-c4cccs4)c(N)oc3c2)cc1OC`, the “fold change (FC)” value is listed as 5.93 in data set [2] and 7.79 in data set [3].

As to `COc1ccc(-c2cc(OC(C)=O)c3c(-c4ccccc4F)c(N)oc3c2)cc1`, the “fold change (FC)” value is 1.31 in data set [1] and 1.82 in data set [2].

On to `COc1ccc(-c2cc(OCCN3CCCCC3)c3c(-c4cccs4)c(N)oc3c2)cc1`, for which the “fold change (FC)” value in data set [2] was 7.53; in data set [3], 5.66.

On to `COc1ccc(-c2cc(OC(C)=O)c3c(-c4cccc(Cl)c4)c(N)oc3c2)cc1`, for which the “fold change (FC)” value in data set [1] was 1.85; in data set [2], 2.45.

With `COc1ccc(-c2cc(OC(C)=O)c3c(-c4ccc(Cl)cc4)c(N)oc3c2)cc1`, the results for the “fold change (FC)” value in data set [1] and in data set [2] were 1.52 and 2.2, respectively.

For `COc1ccc(-c2cc(OC(C)=O)c3c(-c4c(Cl)cccc4Cl)c(N)oc3c2)cc1`, the “fold change (FC)” value in data set [1] is on record as 1.34; in [2] it was 1.81.

On to `COc1ccc(-c2cc(OCc3cccc(OC)c3)c3c(-c4cccs4)c(N)oc3c2)cc1`, for which the “fold change (FC)” value in [2] is given as 0.78; in data set [3], 0.71.

On to `COc1ccc(-c2cc(OCc3cccnc3)c3c(-c4cccs4)c(N)oc3c2)cc1`, for which the “fold change (FC)” value is given as 3.68 in [2] and 4.72 in data set [3].

Regarding `CC(=O)Oc1cc(-c2ccccc2)cc2oc(N)c(-c3cccs3)c12`, the “fold change (FC)” value is listed as 0.95 in data set [1] and 0.98 in data set [2].

`COc1ccc(-c2cc(OC(C)=O)c3c(-c4ccc(OC)cc4)c(N)oc3c2)cc1`: the “fold change (FC)” value in data set [1] is listed as 1.17; in [2] it was 1.75.

On to `COc1ccc(-c2cc(OC(C)=O)c3c(-c4c(F)cccc4Cl)c(N)oc3c2)cc1`, for which the entries for the “fold change (FC)” value in [1] and in data set [2] were 1.35 and 1.61, respectively.

As for `COc1ccc(-c2cc(OC(C)=O)c3c(-c4ccc(F)cc4)c(N)oc3c2)cc1`, the figures for the “fold change (FC)” value in data set [1] and in data set [2] were 0.94 and 1.26, respectively.

As for `COc1ccc(-c2cc(O)c3c(-c4cccs4)c(N)oc3c2)cc1`, the “fold change (FC)” value was 1.46 in data set [1] and 1.62 in [2].

Turning to `COc1ccc(-c2cc(OCc3cccc(Cl)c3)c3c(-c4cccs4)c(N)oc3c2)cc1`, the “fold change (FC)” value in [2] was 0.6; in data set [3] it was 0.56.

In the case of `COc1ccc(-c2cc(OCCN3CCOCC3)c3c(-c4cccs4)c(N)oc3c2)cc1OC`, the “fold change (FC)” value is 8.42 in data set [2] and 8.85 in data set [3].

`COc1ccc(-c2cc(O)c3c(-c4cccs4)c(N)oc3c2)cc1OC`: the “fold change (FC)” value in [2] is 1.15.

Turning to `COc1ccc(-c2cc(OCCN3CCOCC3)c3c(-c4cccs4)c(N)oc3c2)cc1`, the “fold change (FC)” value is 6.64 in data set [2] and 8.86 in data set [3].

As for `COc1ccc(-c2cc(OC(C)=O)c3c(-c4ccccc4Cl)c(N)oc3c2)cc1`, the “fold change (FC)” value in data set [1] was 1.3; in [2], 1.59.

Take `COc1ccc(-c2cc(OC(C)=O)c3c(-c4ccc5c(c4)OCO5)c(N)oc3c2)cc1`: the “fold change (FC)” value is recorded as 1.3 in data set [1] and 1.48 in data set [2].

Take `COc1ccc(-c2cc(OC(C)=O)c3c(-c4ccccc4)c(N)oc3c2)cc1`: the entries for the “fold change (FC)” value in data set [1] and in data set [2] were 1.7 and 2.27, respectively.

As to `COc1ccc(-c2cc(OCCCN3CCCCC3)c3c(-c4cccs4)c(N)oc3c2)cc1OC`, in [2], the “fold change (FC)” value is on record as 4.55.

Regarding `COc1ccc(-c2cc(OC(C)=O)c3c(-c4cccnc4)c(N)oc3c2)cc1`, the “fold change (FC)” value in [1] is on record as 0.89; in [2] it was 1.13.

For `COc1ccc(-c2cc(OCc3ccccn3)c3c(-c4cccs4)c(N)oc3c2)cc1`, the “fold change (FC)” value in data set [2] is given as 3.22; in [3] it was 4.33.

Take `COc1ccc(-c2cc(OCc3ccncc3)c3c(-c4cccs4)c(N)oc3c2)cc1`: the “fold change (FC)” value in data set [2] is given as 4.33; in data set [3] it was 5.88.

As to `CC(=O)Oc1cccc2oc(N)c(-c3cccs3)c12`, the “fold change (FC)” value in data set [1] was 1.05; in data set [2], 1.12.

On to `COc1ccc(-c2cc(OC(C)=O)c3c(-c4ccc(C)cc4)c(N)oc3c2)cc1`, for which the “fold change (FC)” value in [1] was 1.45; in data set [2], 1.86.

In the case of `CCN(CC)CCOc1cc(-c2ccc(OC)cc2)cc2oc(N)c(-c3cccs3)c12`, the “fold change (FC)” value in data set [2] was 8.85; in [3] it was 10.14.

Consider `COc1ccc(-c2cc(OC(C)=O)c3c(-c4ccccc4OC)c(N)oc3c2)cc1`, for which the “fold change (FC)” value in data set [1] is reported as 1.32; in [2] it was 1.49.

`COc1ccc(CCN(C)CCCC(C#N)(c2ccc(OC)c(OC)c2)C(C)C)cc1OC` (configuration not stated): the IC50 – broadly, the concentration at which inhibition is half-maximal – with HeLa S3 was greater than 50 µM. Also, the “fold change (FC)” value was found to be 1.82 in the data set with HEK293 [4]; 9.54 with HEK293 [5]; 1.49 with HEK293 [6]; 1.37 with HEK293 [7]; 1.04 in the data set on HEK293 [8]; 0.8 in the data set on HEK293 [9]. Also, the fold change (FC) in the data set listed under Homo sapiens [10] turned out to be 1.27; in the data set filed under Homo sapiens [11] it was 1.59; in the data set filed under Homo sapiens [12], 3.91; in the data set filed under Homo sapiens [13], 1.33; in the data set filed under Homo sapiens [14] it was 2.82; in the data set listed under Homo sapiens [15] it was 24. For the same molecule, the fold change (FC) in the data set filed under Homo sapiens [16] was 46.1; in the data set filed under Homo sapiens [17] it was 5.13; in the data set listed under Homo sapiens [18], 22.9; in the data set filed under Homo sapiens [19], 1.61; in the data set filed under Homo sapiens [20], 6.69.

`COc1ccc(-c2cc(OCc3ccc([N+](=O)[O-])cc3)c3c(-c4cccs4)c(N)oc3c2)cc1`: the figures for the “fold change (FC)” value in data set [2] and in data set [3] were 0.78 and 0.85, respectively.
